Data as given in US11937601B2, “Method for treatment of soybean rust” (Globachem NV, priority 2020, dated 2024).

What was measured:
P. pachyrhizi [1] = experiment: Field trial, soybean rust severity and efficacy on naturally infected soybean; format: in vivo, Phakopsora pachyrhizi
Experimental: (§1) A field trial was conducted to evaluate the effect and efficacy of zoxamide on soybean rust disease on soybean (Glycine max) wherein plants were naturally infected by the disease (P. pachyrhizi). The trial was divided in the following 11 treatments: • TREATMENT 1: One treatment where plants were left untreated and in which natural progression of the disease was observed; • TREATMENT 2: One reference treatment which consisted of chlorothalonil applied in 1.3 kg/ha; • TREATMENT 3: One reference treatment which consisted of treatment with prothioconazole applied in 75 g/ha. • TREATMENT 4: One reference treatment with the mixture of prothioconazole and trifloxystrobin applied in amount of 70 g/ha of prothioconazole and 60 g/ha of trifloxystrobin. • TREATMENT 5: One reference treatment with wherein tebuconazole was applied in amount of 83.3 g/ha; mancozeb in amount of 1000 g/ha and picoxystrobin in amount of 66.6 g/ha. All four reference treatments (TREATMENTS 2-5) are currently available treatments of soybean rust, wherein the mentioned compositions were prepared from commercially available products prepared according to the respective label instructions and sprayed on the plants in amounts mentioned above and in Table 1 and 2. TREATMENTS 6-8: Three treatments wherein zoxamide was applied in different doses of (6) 180 g/ha, (7) 120 g/ha, and (8) 90 g/ha. TREATMENTS 9-11: Three treatments wherein zoxamide was applied together with prothioconazole in the following doses: (9) zoxamide 180 g/ha and prothioconazole 75 g/ha; (10) zoxamide 120 g/ha and prothioconazole 75 g/ha; and (11) zoxamide 90 g/ha and prothioconazole 75 g/ha. Each of the above treatments was applied on a plot of 3 meters by 6 meters in size and was repeated in 4 replicates. Zoxamide compositions used in this trial were prepared from the suspension concentrate containing 240 g/L of zoxamide, diluted with water to predetermined concentration, vegetable oil was added to concentration of 0.25% V/V, and such composition was sprayed on the plants in the predetermined amounts. First application of respective treatments was made when soybean plant reached BBCH growth stages around 60 to 75. Growth stages were defined according to Compendium of Growth Stage Identification Keys for Mono- and Dicotyledonous Plants, Extended BBCH scale, 2nd Edition 1997, ISBN 3-9520749-3-4. For each treatment, two applications of the respective treatment were made with 14 days interval between. Disease spread and defoliation were evaluated by visual estimation of degree of infection on leaves and defoliation. In Table 1 and Table 2, the following terms have the following meaning: % S—severity; % E—efficacy; 0.0%—disease progressed to maximum; 100.0%—no disease symptoms observed.

P. pachyrhizi [2] = experiment: Field trial, defoliation percent of soybean naturally infected by soybean rust; format: in vivo, Phakopsora pachyrhizi
Experimental: as §1

[3] = 7 days after first application, chlorothalonil 1296 g/ha
[4] = 7 days after second application, chlorothalonil 1296 g/ha
[5] = 14 days after first application, chlorothalonil 1296 g/ha
[6] = 14 days after second application, chlorothalonil 1296 g/ha
[7] = 21 days after second application, chlorothalonil 1296 g/ha
[8] = 28 days after second application, chlorothalonil 1296 g/ha
[9] = 7 days after first application, prothioconazole 75 g/ha
[10] = 7 days after second application, prothioconazole 75 g/ha
[11] = 14 days after first application, prothioconazole 75 g/ha
[12] = 14 days after second application, prothioconazole 75 g/ha
[13] = 21 days after second application, prothioconazole 75 g/ha
[14] = 28 days after second application, prothioconazole 75 g/ha
[15] = 7 days after first application, zoxamide 90 g/ha
[16] = 7 days after first application, zoxamide 120 g/ha
[17] = 7 days after first application, zoxamide 180 g/ha
[18] = 7 days after second application, zoxamide 90 g/ha
[19] = 7 days after second application, zoxamide 120 g/ha
[20] = 7 days after second application, zoxamide 180 g/ha
[21] = 14 days after first application, zoxamide 90 g/ha
[22] = 14 days after first application, zoxamide 120 g/ha
[23] = 14 days after first application, zoxamide 180 g/ha
[24] = 14 days after second application, zoxamide 90 g/ha
[25] = 14 days after second application, zoxamide 120 g/ha
[26] = 14 days after second application, zoxamide 180 g/ha
[27] = 21 days after second application, zoxamide 90 g/ha
[28] = 21 days after second application, zoxamide 120 g/ha
[29] = 21 days after second application, zoxamide 180 g/ha
[30] = 28 days after second application, zoxamide 90 g/ha
[31] = 28 days after second application, zoxamide 120 g/ha
[32] = 28 days after second application, zoxamide 180 g/ha

## N#Cc1c(Cl)c(Cl)c(Cl)c(C#N)c1Cl [CHLOROTHALONIL, chlorothalonil]
P. pachyrhizi [1]; [3]
  % E (efficacy): 100.00%
  % S (severity): 0.00%
P. pachyrhizi [1]; [4]
  % E (efficacy): 76.47%
  % S (severity): 5.00%
P. pachyrhizi [1]; [5]
  % E (efficacy): 66.67%
  % S (severity): 5.00%
P. pachyrhizi [1]; [6]
  % E (efficacy): 76.47%
  % S (severity): 5.00%
P. pachyrhizi [1]; [7]
  % E (efficacy): 68.11%
  % S (severity): 14.75%
P. pachyrhizi [2]; [7]
  Defoliation %: 50.00%
  Efficacy % (defoliation): 38.46%
P. pachyrhizi [2]; [8]
  Defoliation %: 60.00%
  Efficacy % (defoliation): 40.00%

## OC(Cc1ccccc1Cl)(Cn1nc[nH]c1=S)C1(Cl)CC1 (stereo not shown) [PROTHIOCONAZOLE, prothioconazole]
P. pachyrhizi [1]; [9]
  % E (efficacy): 100.00%
  % S (severity): 0.00%
P. pachyrhizi [1]; [10]
  % E (efficacy): 85.88%
  % S (severity): 3.00%
P. pachyrhizi [1]; [11]
  % E (efficacy): 100.00%
  % S (severity): 0.00%
P. pachyrhizi [1]; [12]
  % E (efficacy): 85.88%
  % S (severity): 3.00%
P. pachyrhizi [1]; [13]
  % E (efficacy): 62.16%
  % S (severity): 17.50%
P. pachyrhizi [2]; [13]
  Defoliation %: 50.00%
  Efficacy % (defoliation): 38.46%
P. pachyrhizi [2]; [14]
  Defoliation %: 70.00%
  Efficacy % (defoliation): 30.00%

## CCC(C)(NC(=O)c1cc(Cl)c(C)c(Cl)c1)C(=O)CCl (stereo not shown) [ZOXAMIDE, 3,5-dichloro-N-(3-chloro-1-ethyl-1-methyl-2-oxopropyl)-4-methyl benzamide]
P. pachyrhizi [1]; [15]
  % E (efficacy): 100.00%
  % S (severity): 0.00%
P. pachyrhizi [1]; [16]
  % E (efficacy): 100.00%
  % S (severity): 0.00%
P. pachyrhizi [1]; [17]
  % E (efficacy): 100.00%
  % S (severity): 0.00%
P. pachyrhizi [1]; [18]
  % E (efficacy): 85.88%
  % S (severity): 3.00%
P. pachyrhizi [1]; [19]
  % E (efficacy): 100.00%
  % S (severity): 0.00%
P. pachyrhizi [1]; [20]
  % E (efficacy): 100.00%
  % S (severity): 0.00%
P. pachyrhizi [1]; [21]
  % E (efficacy): 100.00%
  % S (severity): 0.00%
P. pachyrhizi [1]; [22]
  % E (efficacy): 100.00%
  % S (severity): 0.00%
P. pachyrhizi [1]; [23]
  % E (efficacy): 100.00%
  % S (severity): 0.00%
P. pachyrhizi [1]; [24]
  % E (efficacy): 76.47%
  % S (severity): 5.00%
P. pachyrhizi [1]; [25]
  % E (efficacy): 85.88%
  % S (severity): 3.00%
P. pachyrhizi [1]; [26]
  % E (efficacy): 100.00%
  % S (severity): 0.00%
P. pachyrhizi [1]; [27]
  % E (efficacy): 70.27%
  % S (severity): 13.75%
P. pachyrhizi [1]; [28]
  % E (efficacy): 81.08%
  % S (severity): 8.75%
P. pachyrhizi [1]; [29]
  % E (efficacy): 90.27%
  % S (severity): 4.50%
P. pachyrhizi [2]; [27]
  Defoliation %: 52.50%
  Efficacy % (defoliation): 35.38%
P. pachyrhizi [2]; [28]
  Defoliation %: 48.75%
  Efficacy % (defoliation): 40.00%
P. pachyrhizi [2]; [29]
  Defoliation %: 42.50%
  Efficacy % (defoliation): 47.69%
P. pachyrhizi [2]; [30]
  Defoliation %: 70.00%
  Efficacy % (defoliation): 30.00%
P. pachyrhizi [2]; [31]
  Defoliation %: 60.00%
  Efficacy % (defoliation): 40.00%
P. pachyrhizi [2]; [32]
  Defoliation %: 51.25%
  Efficacy % (defoliation): 48.75%
